US9464106B2, “Oligonucleotides useful for detecting and analyzing nucleic acids of interest” (Exiqon A/S, priority 2002, dated 2016)
l = locked nucleic acid (LNA); [5mC] = 5-methylcytosine; d = 2'-deoxy (DNA)

What was measured:
[1] = tested on: 3′-ACGACCAC-5′ / 3′-ACGGCCAC-5′; experiment: Tm of LNA:DNA and DNA:DNA 8-mer duplexes, perfect match and single mismatch; assay type: binding; conditions: for ΔTm: perfect match minus single mismatch; for Tm of LNA:DNA Duplexes, Perfect match: target 3′-ACGACCAC-5′; for Tm of LNA:DNA Duplexes, Single mismatch: target 3′-ACGGCCAC-5′
Source text: It is often difficult to design probes and primers with the same range of melting temperature due to the variance in A/T and G/C content of the probing sites. Highly A/T rich regions typically give lower Tm values. Furthermore, if single mismatches are to be resolved, G/T mismatches are known to contribute little to ΔTm. As discussed above, the use of LNA is a desirable way to solve problems related to multiplex use of primers and probes. LNA offers the possibility to adjust Tm and increase the ΔTm at the same time. LNA increases Tm with 4-8° C./substitution and increases ΔTm in many cases (Table 9).

[2] = tested on: DNA target 3′-d(CACTYTACG); conditions: data reported earlier; cited from earlier work
[3] = tested on: C. elegans genes relevant for general stress response and metabolism of toxic compounds; experiment: Expression profiling on C. elegans LNA tox oligoarray, beta-naphthoflavone and primaquine; assay type: in vivo, Caenorhabditis elegans; conditions: cRNA target; 24 hours
Procedure: For all cultures the sample is divided into two, and one half of the sample is used as the control, the other as the treated sample. Worm samples are harvested and sucrose cleaned by standard methods. For heat shock treatment: the heat shock sample is added to S-media preheated to 33° C. in a 1 L flask suspended in a water bath at 33° C., the other sample is added to a 1 L flask with S-media at 25° C. Both samples are shaken at approximately 100 rpm. for an hour. For β-naphthoflavone and primaquine treatment: 0.5 mL of 5 mg/mL β-naphthoflavone in DMSO or 0.5 mL of 20 mg/mL primaquine in DMSO were added to each 500 mL volume of S-media culture after 28 hours of growth from L1. At the same time 0.5 mL of DMSO was added to the control. Incubation was for 24 hours. Samples are then harvested by centrifugation at 3000×g suspended in RNALater™ (Ambion) and immediately frozen in liquid nitrogen.
First and second strand cDNA syntheses were made using the MessageAmp™ aRNA Kit (Ambion) according to suppliers' instructions. Five microgram of C. elegans total RNA was used as template for cDNA syntheses. Syntheses of fluorescent cRNA were made according to the MessageAmp™ aRNA Kit (Ambion) protocol with minor modifications. Cy3™-UTP or Cy5™-UTP (6 μl of a 5 mM solution Amersham Biosciences, USA) replaced biotin-CTP. The final concentration of ATP, CTP, and GTP was 7.5 mM whereas the concentration of UTP was reduced to 4.9 mM.
The arrays were hybridized overnight using the following protocol. The Cy3™ and Cy5™-labelled cDNA or cRNA samples were combined in one tube followed by addition of 3 μL 20×SSC (3×SSC final), 0.5 μL 1 M HEPES, pH 7.0 (25 mM final), 25 μg yeast tRNA (1.25 μg/μL final), 0.6 μL 10% SDS (0.3% final), and DEPC-treated water to 20 μL final volume. The labelled cDNA target sample was filtered in a Millipore 0.22 micron spin column according to the manufacturer's instructions (Millipore, USA), and the probe was denatured by incubating the reaction at 100° C. for 2 min. The sample was cooled at 20-25° C. for 5 min. by spinning at max speed in a microcentrifuge. A LifterSlip (Erie Scientific Company, USA) was carefully placed on top of the microarray spotted on Immobilizer™ MicroArray Slide and the hybridization mixture was applied to the array from the side. An aliquot of 30 μL of 3×SSC was added to both ends of the hybridization chamber, and the Immobilizer™ MicroArray Slide was placed in the hybridization chamber. The chamber was sealed watertight and incubated at 65° C. for 16-18 hours submerged in a water bath. After hybridisation, the slide was removed carefully from the hybridization chamber and washed using the following protocol. The Lifterslip coverslip was washed off in 2×SSC, pH 7.0 containing 0.1% SDS at room temperature for 1 min., followed by washing of the microarrays subsequently in 1.0×SSC, pH 7.0 at room temperature for 1 min, and then in 0.2×SSC, pH 7.0 at room temperature for 1 min. Finally the slides were washed for 5 seconds in 0.05×SSC, pH 7.0. The slides were then dried by centrifugation in a swinging bucket rotor at approximately 200 G for 2 min. The slide is now ready for scanning.
Following washing and drying, the slides were scanned using a ScanArray 4000XL scanner (Perkin-Elmer Life Sciences, USA), and the array data were processed using the GenePix™ Pro 4.0 software package (Axon, USA). The data in each image was normalized so that the ratio of means of all of the features is equal to 1.

human satellite-2 repeat = experiment: FISH on metaphase chromosomes with satellite-2 LNA/DNA mixmers; assay type: binding; conditions: for FISH signals on chromosomes: 6.4 pmoles Cy3 labeled probe, 30 minutes at 37° C., simultaneous denaturation at 75° C. for 5 minutes; for FISH signals without a denaturation step: overnight hybridization
Procedure: Chromosome preparations were made by standard methods from peripheral lymphocyte cultures of normal males. Slides were prepared 1-4 days prior to an experiment and treated with RNAse (10 μg/μl) at 37° C. for one hour before hybridization. The 23 bp human satellite-2 repeat sequence, [NT], was used to prepare the […] different content and sequence order of LNA modifications (Table 19). All […] labeled in the 5' end with either Cy3 or biotin. Biotin amidite was purchased from Applied Biosystems and Cy3 amidite was purchased from Amersham Bioscience. […] FISH was carried out as described by […], Guven […], Turner Z. (1998) Not para-, not peri-, but centric inversion of chromosome 12. […] (1); with the following modifications including: […] In addition the effect of denaturation was also tested. Two alternative hybridization mixtures were used: 50% formamide/2×SSC (pH 7.0)/10% dextran sulphate or 2×SSC (pH 7.0)/10% dextran sulphate. Hybridization times included 30 min, 1 hr, 2 hrs, 3 hrs and overnight. Hybridization temperatures included: 37° C., 55° C., 60° C. and 72° C. Post washing was either as for standard FISH (1), or with 50% formamide/2×SSC at 60° C., or without formamide. Hybridization signals with biotin labeled LNA substituted oligonucleotide probes were visualized indirectly using two layers of fluorescein-labeled avidin (Vector Labs) linked by a biotinylated anti-avidin molecule, which amplified the signal 8-64 times. The hybridization of Cy3 labeled molecules however, was visualized directly after a short washing procedure. […] The whole procedure was carried out in the dark. The signals were visualized using a Leica DMRB epifluorescence microscope equipped with a SenSys charge-coupled device camera (Photometrics, Tucson, Ariz.), and IPLAB Spectrum Quips FISH software (Applied Imaging international Ltd, Newcastle, UK) within two days after hybridization.

[4] = tested on: DNA oligonucleotides (HNFas128A-2, Gluc53as-A); experiment: Mismatch discrimination of chimeric LNA-DNA 12-mers containing LNA-A or LNA-D; assay type: binding
[5] = tested on: splice variant #1 and #2 transcripts spiked into C. elegans total RNA; experiment: Splice variant ratio detection with merged LNA block capture probes (Example 9); assay type: binding; conditions: signal ratio KU007/KU008, Cy5, normalized

## 5′-TGCTGGTG-3′ [DNA 8-mer, reference compound]
[1]
  ΔTm: 10 °C
  Tm of LNA:DNA Duplexes, Perfect match: 35 °C
  Tm of LNA:DNA Duplexes, Single mismatch: 25 °C

## 5′-TGCTGGTG-3′ [LNA 8-mer]
[1]
  ΔTm: 26 °C
  Tm of LNA:DNA Duplexes, Perfect match: 71 °C
  Tm of LNA:DNA Duplexes, Single mismatch: 45 °C

## 5′-d(GTGATATGC) [ON1]
[2]
  Tm, Y = A: 28 °C
  Tm, Y = C: 11 °C
  Tm, Y = G: 12 °C
  Tm, Y = T: 19 °C

## COc1cc(NC(C)CCCN)c2ncccc2c1 (centres unmarked) [Primaquine, primaquine]
[3]
  Log2 transformed fold of change, ABC_F57C12.4: −1.11
  Log2 transformed fold of change, CYP_F14F7.2: −1.24
  Log2 transformed fold of change, DC_W05G11.3: 1.16
  Log2 transformed fold of change, ER_26S: −1.09
  Log2 transformed fold of change, PPGB_F13D12.6: 1.08
  Log2 transformed fold of change, RPL_K11H12.2: 1.15

## O=c1cc(-c2ccccc2)oc2ccc3ccccc3c12 [beta-naphthoflavone, β-naphthoflavone]
[3]
  Log2 transformed fold of change, ABC_C34G6.4: 1.01
  Log2 transformed fold of change, CYP_C03G6.15: 2.35
  Log2 transformed fold of change, CYP_C06B3.3: 2.47
  Log2 transformed fold of change, CYP_C49G7.8: 2.40
  Log2 transformed fold of change, CYP_F14F7.2: −1.03
  Log2 transformed fold of change, CYP_K07C6.5: 2.68
  Log2 transformed fold of change, CYP_K09D9.2: 2.14
  Log2 transformed fold of change, ER_26S: −1.01
  Log2 transformed fold of change, HSP_C47E8.5: 1.17
  Log2 transformed fold of change, HSP_F26D10.3: 1.05
  Log2 transformed fold of change, HSP_F43D9.4: 1.27
  Log2 transformed fold of change, NAP_D2096.8: 1.14
  Log2 transformed fold of change, PPGB_F13D12.6: 1.21
  Log2 transformed fold of change, RAD_Y116A8C.133: 1.13
  Log2 transformed fold of change, RPL_K11H12.2: 1.42
  Log2 transformed fold of change, Ubi_F25B5.4: 1.37

## ATtCcAtTcGaTtCcAtTcGaTc (as printed in the source, key not given here) [LNA-2]
Human satellite-2 repeat
  FISH signals on chromosomes: signals on chromosomes 1, 16, 9 and 15
  FISH signals without a denaturation step: giving the best signals

## aTTCcattcgATTccattcGATc (ATTCCATTCGATTCCATTCGATC; sugars from the 5' end dlllddddddlllddddddllld, backbone and methylation of C not given here; 5' end labelled with Cy3 or biotin) [LNA Blocks]
Human satellite-2 repeat
  FISH signals on chromosomes: smaller signals on chromosome 1

## aTtcCatTcgAtTccAttCgaTc (ATTCCATTCGATTCCATTCGATC; sugars from the 5' end dlddlddlddldlddlddlddld, backbone and methylation of C not given here; 5' end labelled with Cy3 or biotin) [LNA-3]
Human satellite-2 repeat
  FISH signals on chromosomes: bright signals on chromosomes 1, 16 and 9

## aTtccatTcgaTtccAttcgaTc (ATTCCATTCGATTCCATTCGATC; sugars from the 5' end dldddddldddldddldddddld, backbone and methylation of C not given here; 5' end labelled with Cy3 or biotin) [Dispersed LNA]
Human satellite-2 repeat
  FISH signals on chromosomes: signals on chromosomes 1 and 16 only

## attccattcgattccattcgatc (ATTCCATTCGATTCCATTCGATC; chemistry not given here) [DNA oligo, reference compound]
Human satellite-2 repeat
  FISH signals on chromosomes: no signals on any of the chromosomes
  FISH signals without a denaturation step: no signals were obtained

## cAmCtgGAmCtctt (CACTGGACTCTT; chemistry not given here)
[4]; Gluc53as-A
  ΔTm between singly mismatched and perfect duplexes: −10.9 °C
[4]; Gluc53as-A, duplexes 2 μM
  Tm with aagaggccagtg (singly mismatched): 50.6 °C
  Tm with aagagtccagtg (perfect): 61.5 °C

## caacactgcccagaggttcaatcGATGTgtgataggatcagtgttcaggg (CAACACTGCCCAGAGGTTCAATCGATGTGTGATAGGATCAGTGTTCAGGG; sugars from the 5' end d23 l5 d22, backbone not given here; further chemistry not fully specified) [gene78.m01INS4_50_block]
[5]
  Observed ratio (log2) with merged LNA block capture probes: −2.39

## caacactgcccagaggttcaatcGATmCmCgatgatcctaatgaaggcgccc (CAACACTGCCCAGAGGTTCAATCGATCCGATGATCCTAATGAAGGCGCCC; sugars from the 5' end d23 l5 d22, [5mC] at 27, 28, backbone not given here; further chemistry not fully specified) [gene78.m01INS3_50_block]
[5]
  Observed ratio (log2) with merged LNA block capture probes: 2.93

## gaaggcgaaggagactgctAATATcgataaatatgtgaaggaaatgcctg (as printed in the source, key not given here) [gene78.mINS403_50_block]
[5]
  Observed ratio (log2) with merged LNA block capture probes: −0.86

## gene78.m0103: merged probe corresponding to the exon 01-exon 03 border (DNA CACAACACTGCCCAGAGGTTCAATCGATAAATATGTGAAGGAAATGCCTG; listed as DNA, chemistry not fully specified)
[5]
  Observed ratio (log2) with merged LNA block capture probes: −0.24

## gtccagtatcgtccatcatAGTATcgataaatatgtgaaggaaatgcctg (as printed in the source, key not given here) [gene78.mINS303_50_block]
[5]
  Observed ratio (log2) with merged LNA block capture probes: 3.11

## tGtggGATGttg (TGTGGGATGTTG; chemistry not given here)
[4]; HNFas128A-2
  ΔTm between singly mismatched and perfect duplexes: −15.1 °C
[4]; HNFas128A-2, duplexes 2 μM
  Tm with caacaacccaca (singly mismatched): 45.9 °C
  Tm with caacatcccaca (perfect): 61.0 °C
